In patent US20140357512A1, “HISTONE DEACETYLASE (HDAC) BIOMARKERS IN MULTIPLE MYELOMA” (priority 2013, published 2014):

Test system: human myeloma cell line MM.1S
Assay: SILAC acetylated-lysine peptide profiling, HDAC inhibitor vs DMSO (light/heavy ratio)
Type: cell-based
Excerpt: An embodiment of the invention comprises utilizing the SILAC method in order to quantitate changes in protein expression between two or more populations of cells. The SILAC method is a technique based on mass spectrometry that detects differences in protein abundance among samples using non-radioactive isotopic labeling. The SILAC method is known in the art, and described in detail in Ong et al., “Stable Isotope Labeling by Amino Acids in Cell Culture, SILAC, as a Simple and Accurate Approach to Expression Proteomics”, Molecular & Cellular Proteomics, vol. 1, pp. 376-386 (2002), which is incorporated herein by reference in its entirety.
Briefly, the SILAC method involves growing two populations of cells in cell culture. The first population of cells is grown in growth media containing normal amino acids (“normal media”). The second population of cells is grown in media lacking a standard essential amino acid (such as lysine), but is then supplemented with a non-radioactive, isotopically labeled form of that essential amino acid (such as lysine labeled with ^13C atoms, rather than normal ^12C atoms), which is called “heavy media”. When the two populations of cells are each growing in the medium, they incorporate the amino acids into all of their proteins. The growth of cells maintained in the heavy media is no different from that in normal media. All peptides containing the heavy amino acids are heavier than their normal counterparts. The cells from each of the two populations of cells are lysed. The lysates from each of the two cell populations are then combined. The combined cell lysates are then analyzed by mass spectrometry. Pairs of chemically identical peptides of different stable isotope composition can be differentiated in a mass spectrometer due to their difference in mass. The ratio of peak intensities in the mass spectrum for such peptide pairs reflects the abundance ratio for the two proteins.
This example describes SILAC studies that were performed to compare the effects of three different HDAC inhibitors (Compound A, Compound B, and tubastatin A) to a control on a human multiple myeloma cell line. The HDAC inhibitors were also compared amongst themselves to determine differences in their effects.
A human myeloma cell line MM.1S was grown using either ^12C (light) or ^13C (heavy) lysine containing culture medium. The “heavy” cells were treated with DMSO as the control, and the “light” cells were treated with a single HDAC inhibitor at 37° C. for 6 hours. The heavy and light cells were lysed, and the lysates were mixed in 1:1 ratio and digested with the protease trypsin. The acetylated lysine containing peptides (due to the action of the HDAC inhibitor) in the digested peptide pool were captured by a non-specific anti-acetylated lysine antibody cocktail (the antibodies identify both light and heavy acetylated peptides), and subjected to mass spectrometry analysis in order to identify thousands of individual peptides.
Thousands of peptides were identified in pairs (^12C and ^13C) due to their known mass differences. The amino acid sequence and quantitative ratio (Light/Heavy) of a given peptide in two differentially treated cell lysates were then determined and annotated with their possible protein (gene) sources.
As stated above, three HDAC inhibitors (Compound A, Compound B, and Tubastatin A) were used. Thus, the SILAC method was performed three times, with a different HDAC inhibitor compared to a control each time. Accordingly, there are three pairs of quantitative data in the table below, i.e., Compound A:DMSO, Compound B:DMSO, and Tubastatin A:DMSO. A cut-off of 1.30 fold of change (increase or decrease) was then used to determine “changed” or “+” in the table, and any peptides with a fold of change less than 1.3 fold were determined to be “unchanged” or “0” in the table. Those peptides that were not identified were marked as “NA” in the table. […]

Q: For `O=C(NO)c1cnc(NC2(c3cccc(F)c3)CCCCC2)nc1` [Compound B, 2-((1-(3-fluorophenyl)cyclohexyl)amino)-N-hydroxypyrimidine-5-carboxamide], which “L/H ratio of acetylated peptide LDHLAEK(ac)FR (SEQ ID NO: 20)” value (ACTN1 [398], log 2 scale, drug vs DMSO) is on record?
A: The value was 0.00.

Q: What about the “L/H ratio of acetylated peptide […](ac)FVYQAK (SEQ ID NO: 126)” value (ADAR [757], log 2 scale, drug vs DMSO) of the same molecule?
A: The value was 0.00.

Q: And the “light to heavy ratio (L/H ratio) of acetylated peptide, log 2 scale” value (“light to heavy ratio (L/H ratio) … log 2 scale” below) (ADINTK(ac)WAATR (SEQ ID NO: 202), Ribosomal protein L14 variant [85], RPL14)?
A: The value was 0.00.

Q: What about the “light to heavy ratio (L/H ratio) … log 2 scale” value (ADK(ac)DYHFK (SEQ ID NO: 191), Isoform 2 of Nucleophosmin [27], NPM1) of the same molecule?
A: Its value is 0.00.

Q: What about the “light to heavy ratio (L/H ratio) of acetylated peptide TTLLYK(ac)LK (SEQ ID NO: 624)” value (ADP-ribosylation factor-like protein 11 [31], gene ARL11, inhibitor:DMSO) of the same molecule?
A: The value was 0.00 log 2.

Q: And the “light to heavy ratio (L/H ratio) of acetylated peptide IFK(ac)SDGLR (SEQ ID NO: 280)” value (ADP/ATP translocase 1 [166], SLC25A4, drug:DMSO)?
A: The value was 0.00 log 2.

Q: What about the “light to heavy ratio (L/H ratio) of acetylated peptide ITK(ac)SDGIR (SEQ ID NO: 587)” value (ADP/ATP translocase 3 [166], gene SLC25A6, inhibitor:DMSO) of the same molecule?
A: Its value is 0.00 log 2.

Q: And the “L/H ratio of acetylated peptide” value (AELSK(ac)LVIVAK (SEQ ID NO: 370), UPF0556 protein C19orf10 [161], C19orf10)?
A: The value was 1.00 log 2.

Q: What about the “L/H ratio of acetylated peptide HLSDSINQK(ac)HFEQAIER” value (AFG3L2 [543], log 2 scale, drug vs DMSO) of the same molecule?
A: Its value is 0.00.

Q: And the “L/H ratio of acetylated peptide” value (AFQLK(ac)SR (SEQ ID NO: 439), ribonucleoprotein PTB-binding 1 [579], RAVER1)?
A: The value was −0.89 log 2.

Q: What about the “light to heavy ratio (L/H ratio) … log 2 scale” value (AFYK(ac)SFSK (SEQ ID NO: 170), Endoplasmin [360], HSP90B1) of the same molecule?
A: The value was 0.00.

Q: And the “L/H ratio of acetylated peptide” value (AK(ac)FESMAEEK (SEQ ID NO: 402), Hematopoietic lineage cell-specific protein [241], HCLS1)?
A: The value was 1.00 log 2.

Q: What about the “light to heavy ratio (L/H ratio) … log 2 scale” value (ALDLNLK(ac)HQILPK (SEQ ID NO: 248), Cytochrome b-c1 complex subunit 7 [72], UQCRB) of the same molecule?
A: Its value is 0.00.

Q: And the “L/H ratio of acetylated peptide LK(ac)[…] (SEQ ID NO: 21)” value (ANP32B [101], log 2 scale, drug vs DMSO)?
A: Its value is 0.00.

Q: What about the “L/H ratio of acetylated peptide […](ac)SLYGK (SEQ ID NO: 22)” value (ANXA6 [63], log 2 scale, drug vs DMSO) of the same molecule?
A: Its value is 0.00.

Q: What about the “L/H ratio of acetylated peptide LGTDESK(ac)FNAVLCSR (SEQ ID NO: 7)” value (ANXA11 [478], log 2 scale, drug vs DMSO) of the same molecule?
A: Its value is 0.50.

Q: And the “L/H ratio of acetylated peptide MYFDK(ac)[…] (SEQ ID NO: 23)” value (ATAD3A [491], log 2 scale, drug vs DMSO)?
A: The value was 0.00.

Q: And the “L/H ratio of acetylated peptide” value (ATAEEMTK(ac)YHSDEYIK (SEQ ID NO: 403), Histone deacetylase 2[161], HDAC2)?
A: Its value is 0.78 log 2.

Q: And the “L/H ratio of acetylated peptide IVEYEK(ac)EMEK (SEQ ID NO: 24)” value (ATP5H [117], log 2 scale, drug vs DMSO)?
A: The value was 0.00.

Q: And the “L/H ratio of acetylated peptide YYNK(ac)YINVK (SEQ ID NO: 12)” value (ATP5J2 [54], log 2 scale, drug vs DMSO)?
A: Its value is −0.43.

Q: And the “light to heavy ratio (L/H ratio) of acetylated peptide QNK(ac)LEQVEK (SEQ ID NO: 271)” value (ATP synthase subunit O mitochondrial [54], ATP50, drug:DMSO)?
A: The value was 0.00 log 2.

Q: And the “light to heavy ratio (L/H ratio) of acetylated peptide ISEQSDAK(ac)LK (SEQ ID NO: 600)” value (ATP synthase subunit alpha mitochondrial [539], gene ATP5A1, inhibitor:DMSO)?
A: Its value is 0.00 log 2.

Q: And the “light to heavy ratio (L/H ratio) of acetylated peptide […](ac)ETIAK (SEQ ID NO: 307)” value (ATP synthase subunit b mitochondrial [233], ATP5F1, drug:DMSO)?
A: The value was 0.00 log 2.

Q: What about the “light to heavy ratio (L/H ratio) of acetylated peptide […](ac)QLTVK (SEQ ID NO: 279)” value (ATP synthase subunit g mitochondrial [66], ATP5L, drug:DMSO) of the same molecule?
A: Its value is 0.00 log 2.

Q: What about the “light to heavy ratio (L/H ratio) of acetylated peptide ELDPIQK(ac)LFVDK (SEQ ID NO: 365)” value (ATP synthase-coupling factor 6 mitochondrial [41], ATP5J, drug:DMSO) of the same molecule?
A: Its value is −0.48 log 2.

Q: And the “light to heavy ratio (L/H ratio) of acetylated peptide FEDPK(ac)FEVIEKPQA (SEQ ID NO: 325)” value (ATP synthase-coupling factor 6 mitochondrial [99], ATP5J, drug:DMSO)?
A: Its value is −0.50 log 2.

Q: And the “light to heavy ratio (L/H ratio) … log 2 scale” value (AVEEK(ac)[…] (SEQ ID NO: 172), 78 kDa glucose-regulated protein [601], HSPA5)?
A: Its value is 0.00.

Q: And the “L/H ratio of acetylated peptide” value (AVSMDNSNK(ac)YTK (SEQ ID NO: 396), Forkhead box protein O3 [259], FOXO3)?
A: Its value is 0.45 log 2.

Q: And the “L/H ratio of acetylated peptide” value (AYHLQK(ac)STCGK (SEQ ID NO: 443), 60S ribosomal protein L37 [31], RPL37)?
A: Its value is 0.42 log 2.

Q: And the “light to heavy ratio (L/H ratio) of acetylated peptide NAYVWTLK(ac)GR (SEQ ID NO: 361)” value (Actin-related protein 2/3 complex subunit 1B [82], ARPC1B, ARPC1A, drug:DMSO)?
A: Its value is −1.00 log 2.

Q: And the “light to heavy ratio (L/H ratio) of acetylated peptide VFDPQNDK(ac)[…] (SEQ ID NO: 362)” value (Actin-related protein 2/3 complex subunit 3 [155], ARPC3, drug:DMSO)?
A: The value was 0.45 log 2.

Q: What about the “light to heavy ratio (L/H ratio) of acetylated peptide AFAK(ac)ELFLGK (SEQ ID NO: 627)” value (Acyl-CoA dehydrogenase family member 9 mitochondrial [41], gene ACAD9, inhibitor:DMSO) of the same molecule?
A: Its value is 0.00 log 2.
